Experimental data from PubChem BioAssay (NCI).
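Here, GI50 denotes the concentration required for 50% inhibition of growth. TGI: total growth inhibition.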

Experiments:
Assay in all cases: inhibition of tumour cell growth, NCI panel, 384-well format
PC-3 prostate = system: PC-3 prostate
T-47D breast = system: T-47D breast
HT29 colon = system: HT29 colon
DU-145 prostate = system: DU-145 prostate
OVCAR-5 ovarian = system: OVCAR-5 ovarian
UACC-257 melanoma = system: UACC-257 melanoma
MDA-MB-435 melanoma = system: MDA-MB-435 melanoma
MALME-3M melanoma = system: MALME-3M melanoma
MOLT-4 leukemia = system: MOLT-4 leukemia
NCI/ADR-RES ovarian = system: NCI/ADR-RES ovarian
OVCAR-8 ovarian = system: OVCAR-8 ovarian
SR leukemia = system: SR leukemia
SW-620 colon = system: SW-620 colon
K-562 leukemia = system: K-562 leukemia
SF-295 CNS = system: SF-295 CNS
NCI-H226 lung = system: NCI-H226 lung
LOX IMVI melanoma = system: LOX IMVI melanoma
SNB-75 CNS = system: SNB-75 CNS
CCRF-CEM leukemia = system: CCRF-CEM leukemia
IGROV1 ovarian = system: IGROV1 ovarian
COLO 205 colon = system: COLO 205 colon
A498 renal = system: A498 renal
MCF7 breast = system: MCF7 breast
SK-MEL-2 melanoma = system: SK-MEL-2 melanoma
OVCAR-4 ovarian = system: OVCAR-4 ovarian
SK-OV-3 ovarian = system: SK-OV-3 ovarian
HCT-15 colon = system: HCT-15 colon
EKVX NSCLC = system: EKVX NSCLC
KM12 colon = system: KM12 colon

COc1ccc(F)cc1-c1ccnc2[nH]c(C3=CCN(C4CCC(CC(=O)O)CC4)CC3)cc12 (centres undefined)
GI50 (PC-3 prostate): 0.124 µM | TGI (PC-3 prostate): 0.52 µM | GI50 (T-47D breast): 0.072 µM | GI50 (HT29 colon): 0.184 µM | TGI (HT29 colon): 0.606 µM | GI50 (DU-145 prostate): 0.115 µM | TGI (DU-145 prostate): 1.82 µM | GI50 (OVCAR-5 ovarian): 0.115 µM | TGI (OVCAR-5 ovarian): 31.6 µM | GI50 (UACC-257 melanoma): 0.138 µM | TGI (UACC-257 melanoma): 0.288 µM | GI50 (MDA-MB-435 melanoma): 0.13 µM | TGI (MDA-MB-435 melanoma): 0.411 µM | GI50 (MALME-3M melanoma): 0.063 µM | TGI (MALME-3M melanoma): 0.197 µM | GI50 (MOLT-4 leukemia): 0.0366 µM | TGI (MOLT-4 leukemia): 0.121 µM | GI50 (NCI/ADR-RES ovarian): 1.22 µM | TGI (NCI/ADR-RES ovarian): 4.59 µM | GI50 (OVCAR-8 ovarian): 0.0546 µM | TGI (OVCAR-8 ovarian): 0.238 µM | TGI (SR leukemia): < 0.0141 µM | GI50 (SW-620 colon): 0.0623 µM | TGI (SW-620 colon): 0.588 µM | GI50 (K-562 leukemia): 0.136 µM | TGI (K-562 leukemia): 0.521 µM | GI50 (SF-295 CNS): 0.171 µM | TGI (SF-295 CNS): 0.456 µM | GI50 (NCI-H226 lung): 0.116 µM | TGI (NCI-H226 lung): 0.451 µM | GI50 (LOX IMVI melanoma): 0.0336 µM | TGI (LOX IMVI melanoma): 0.141 µM | GI50 (SNB-75 CNS): 0.0483 µM | TGI (SNB-75 CNS): 0.172 µM | GI50 (CCRF-CEM leukemia): 0.0218 µM | TGI (CCRF-CEM leukemia): 0.0578 µM | GI50 (IGROV1 ovarian): 0.0771 µM | TGI (IGROV1 ovarian): > 100 µM | GI50 (COLO 205 colon): 0.0336 µM | TGI (COLO 205 colon): 0.188 µM | GI50 (A498 renal): 0.0864 µM | GI50 (MCF7 breast): 0.0311 µM | TGI (MCF7 breast): 12 µM | GI50 (SK-MEL-2 melanoma): 0.0493 µM | TGI (SK-MEL-2 melanoma): 0.176 µM | GI50 (OVCAR-4 ovarian): 0.158 µM | TGI (OVCAR-4 ovarian): 0.492 µM | GI50 (SK-OV-3 ovarian): 0.398 µM | TGI (SK-OV-3 ovarian): > 25.9 µM | GI50 (HCT-15 colon): 0.0637 µM | TGI (HCT-15 colon): 2.32 µM | GI50 (EKVX NSCLC): 0.15 µM | TGI (EKVX NSCLC): 0.437 µM | GI50 (KM12 colon): 0.0289 µM
